What was measured:
Plasmodium falciparum [1] = test: NOVARTIS: Inhibition of Plasmodium falciparum 3D7 (drug-susceptible) proliferation in erythrocyte-based infection assay; type: functional, organism-based; settings: Plasmodium falciparum, 3D7
Plasmodium falciparum [2] = test: NOVARTIS: Inhibition of Plasmodium falciparum W2 (drug-resistant) proliferation in erythrocyte-based infection assay; type: functional, organism-based; settings: Plasmodium falciparum, W2; read-out: EC50
[3] = NOVARTIS: Cytotoxicity against human hepatocellular carcinoma cell line (Huh7); type: toxicity, cell-based, Huh-7; settings: Huh7 cells (hepatocellular carcinoma cell line)

| SMILES | EC50 (Plasmodium falciparum [1]) [nM] | EC50 (Plasmodium falciparum [2]) [nM] | CC50 [3] [nM] |
| --- | --- | --- | --- |
| O=C(Nc1ccc(Cl)c(Cl)c1)Nc1ccc(Cl)c(Cl)c1 | 1030 | 460 | 20200 |
| Cc1ccc(S(=O)(=O)NC(=O)Nc2ccc(N(C)C)cc2)cc1 | 324 | 467 | 20400 |
| CCN1/C(=C/c2sc3ccccc3[n+]2CC)C=Cc2cc(NC(C)=O)ccc21 | 255 | 225 | > 10000 |
| COc1ccc(OCC(=O)Nc2cccc(NC(=O)COc3ccc(OC)cc3)n2)cc1 | 6840 | 2290 | > 100000 |
| O=C(c1ccc(-n2c(SCc3ccc(Cl)cc3)nc3ccccc3c2=O)cc1)N1CCOCC1 | > 12500 | 2280 | > 100000 |
| COc1cc(OC)nc(C(Sc2ccc(NC(=O)c3cccs3)cc2)c2ccccc2)n1 (stereo not given) | 175 | 224 | > 10000 |
| CCN1CCN(c2cc(C)c3cc(NC(=O)c4ccc(OC)c([N+](=O)[O-])c4)ccc3n2)CC1 | 273 | 344 | 15400 |
| CCOC(=O)C1=C(c2ccccc2)N=c2sc(=Cc3cc(C)n(-c4ccc(F)cc4)c3C)c(=O)n2C1c1cccc(OC)c1OC (stereo not given) | 2320 | 2280 | > 100000 |
| COc1ccc(-c2nc(NC(=O)CS(=O)(=O)c3ccccc3)sc2C)cc1 | 505 | 2300 | > 100000 |
| CN1CCN(NC=C2C(=O)N(c3nc4ccccc4s3)N=C2c2ccccc2)CC1 | > 12500 | 2300 | > 100000 |
| COc1ccc(C=C2SC(=N)N(c3ccc4c(c3)OCO4)C2=O)cc1OC | > 9750 | 2280 | > 100000 |
| COc1ccc(-c2cc(C3CCN(c4nc(N)c5cc(OC)c(OC)cc5n4)CC3)n[nH]2)cc1OC | 202 | 379 | 16400 |
| O=[N+]([O-])c1ccc(-c2ccc(C=NNc3ccccn3)o2)cc1 | 2430 | 2300 | > 100000 |
| COc1ccc([N+](=O)[O-])cc1-c1ccc(C=C(C#N)c2nn(CCO)c(N)c2C#N)o1 | > 12500 | 2290 | > 100000 |
| C=CCNC(=O)c1cc2c(=O)n3ccccc3nc2n(CCc2ccccc2)c1=N | 1530 | 2320 | > 100000 |
| COc1ccccc1/C=C/C1=NC(=C\c2ccc(SC)cc2)/C(=O)O1 | > 1250 | 228 | > 10000 |
| FC(F)(F)c1ccccc1CN1CCc2nc(N3CCCCC3)sc2C1 | 253 | 228 | > 10000 |
| CCN1CCC(NC2CCCc3c2[nH]c2ccc([N+](=O)[O-])cc32)CC1 (stereo not given) | 497 | 337 | 14500 |
| O=C(C[n+]1cc(-c2ccc(F)cc2)n2c1CCC2)Nc1ccc(Cl)cc1 | 2880 | 2300 | > 100000 |
| CC1CCN(c2ncnc3sc4c(c23)CCC(C)C4)CC1 (stereo not given) | 1050 | 2300 | > 100000 |
| O=C(NCc1ccc(Cl)cc1)C1CNCC1c1ccc(C(F)(F)F)cc1 (stereo not given) | 392 | 412 | 18200 |
| COc1ccccc1CNC(=O)C1c2ccccc2C(=O)N2CCc3ccccc3C12 (stereo not given) | 4900 | 2250 | > 100000 |
| CN(CCCNc1ccnc2cc(Cl)ccc12)C(=O)C(C)(C)C | 203 | 225 | > 10000 |
| CC1CN(C(=O)CCCSc2nnc(Cc3ccccc3)n2-c2ccc(Cl)c(Cl)c2)CC(C)O1 (stereo not given) | > 12500 | 2230 | > 100000 |
| Cc1ccc(NC(=O)c2sc3nc4c(c(-c5cccs5)c3c2N)CCCC4)cc1 | 442 | 2220 | > 100000 |
| CC(C)NC(=O)c1cn(Cc2ccccc2)cc(C(=O)NCCc2nc3ccccc3[nH]2)c1=O | 3340 | 2220 | > 100000 |
| Cc1ccc2nc3nc4c(C)cccc4c(N)c3cc2c1 | 102 | 157 | 6940 |
| Oc1ccc(Cl)cc1C1CC(c2ccc(Cl)cc2)=NC(c2ccc(Cl)cc2)N1 (stereo not given) | 813 | 783 | 34700 |

| SMILES | EC50 (Plasmodium falciparum [1]) [nM] | EC50 (Plasmodium falciparum [2]) [nM] | CC50 [3] [nM] |
| --- | --- | --- | --- |
| CC(=O)Nc1cccc(-c2cncc(-c3ccc(C(=O)O)cc3)n2)c1 | 1150 | 2250 | > 100000 |
| Brc1cccc(CNC2CCN(CCc3ccccc3)CC2)c1 | 310 | 515 | 22900 |
| C=CCOc1cccc(C(Nc2cccc(C)n2)c2ccc3cccnc3c2O)c1 (stereo not given) | 5750 | 1560 | > 69400 |
| CN1C=CC=C/C1=C\C=C1\C=Nc2ccccc21 | 276 | 223 | > 10000 |
| c1ccc(-c2cc(N3CCC4(CC3)OCCO4)nc(-c3ccccn3)n2)nc1 | 420 | 223 | > 10000 |
| CCCC(=O)Oc1ccccc1-c1nc2ccccn2c1NC(C)(C)CC(C)(C)C | 793 | 44 | 1960 |
| c1ccc2c(c1)c1c(c3ccccc32)CN2CCCC2C1 (stereo not given) | 120 | 221 | > 10000 |
| CC(=O)NC(=Cc1ccc(OC(F)F)cc1)C(=O)O | > 12500 | 2270 | > 100000 |
| Cc1cc(Nc2ccc(N(C)C)cc2)n2ncnc2n1 | 6000 | 2270 | > 100000 |
| CCOc1ccc(NC(=O)NC(Cc2c[nH]c3ccccc23)C(=O)N2CCN(C(=O)NC(C)C)C(C)C2)cc1 (stereo not given) | 259 | 223 | > 10000 |
| CN1CCN(c2nc(NCCNc3ccc([N+](=O)[O-])cc3)c3ccccc3n2)CC1 | 537 | 424 | 19000 |
| CN(C)CCNc1ncnc2c1[nH]c1ccc(Br)cc12 | 100 | 476 | 21100 |
| Cc1cccc(CCNc2cc(C)nc3nc(C)nn23)c1 | 2420 | 2290 | > 100000 |
| Cc1ccc(-c2nnc(SCCCC(=O)NC(Cc3ccccc3)c3ccccc3)n2-c2cccc(Cl)c2)cc1 (stereo not given) | > 12500 | 621 | > 27600 |
| CCN(CC)c1nc(-c2cccnc2)nc2ccccc12 | 5640 | 1600 | 72200 |
| CSCCN1CCc2ccc3[nH]cc(-c4cccc(Cl)c4)c3c2C1 | 108 | 224 | > 10000 |
| CC(=O)Nc1nc(C)c(-c2csc(Nc3ccc(Br)cc3)n2)s1 | 696 | 859 | 38100 |
| COc1cc[n+](OC(=O)N2CCCCC2)c(C)c1 | 188 | 810 | 36600 |
| COc1ccc(Nc2ccccc2NC(=O)c2cccc(N(C)C)c2)cc1 | 2450 | 2290 | > 100000 |
| COC(=O)c1ccc(Nc2nc(NCc3ccco3)c3ccccc3n2)cc1 | 279 | 433 | 18800 |
| Cc1ccc(C(=O)N(C)CCCNc2ccnc3cc(Cl)ccc23)cc1 | 141 | 122 | 5370 |
| OCCc1cn(-c2ccccc2)c2ccccc12 | 717 | 226 | > 10000 |
| COC(=O)C1=C(C)N(C)C(C)=C(C(=O)OC)C1c1ccc([N+](=O)[O-])cc1 | 633 | 2260 | > 100000 |
| CCOC(=O)c1nnn(-c2nonc2-n2cccc2)c1CN1CCCCC1 | 2430 | 2210 | > 100000 |
| O=C(C[n+]1cc(-c2ccccc2)n2c1CCC2)c1ccc(C2CCCCC2)cc1 | 312 | 393 | 17100 |
| S=C(NCc1ccco1)NC1CC2CCC(C1)N2Cc1ccccc1 (stereo not given) | 865 | 2240 | > 100000 |
| CC1(C)CC(NC(=O)Cc2ccc(Cl)cc2)CC(C)(C)N1 | > 12500 | 2300 | > 100000 |

— ChEMBL document CHEMBL1156829 (Proc Natl Acad Sci U S A, 2008)
